# ChEMBL document CHEMBL5647694, “Novel orally bioavailable EZH1/2 dual inhibitors with greater antitumor efficacy than an EZH2 selective inhibitor” (Cancer Sci, 2017)
# Columns and labels:
# [1] = biological target: Cytoplasmic tyrosine-protein kinase BMX (Homo sapiens) (UniProt P51813); assay: Inhibition of N-terminal GST-fused full length human BMX ( 1 to 675 residues) expressed in baculovirus-infected Sf21 cells using Srctide as substrate at 1 uM in presence of ATP by Mobility shift assay
# [2] = biological target: Ephrin type-A receptor 3 (Homo sapiens) (UniProt P29320); assay: Inhibition of N-terminal GST-fused human EPHA3 cytoplasmic domain (579 to 983 residues) expressed in baculovirus-infected Sf21 cells using Blk/Lyntide as substrate at 1 uM in presence of ATP by Mobility shift assay
# Sequence of Ephrin type-A receptor 3 (Homo sapiens) (P29320 whole entry, the tested form may be a part): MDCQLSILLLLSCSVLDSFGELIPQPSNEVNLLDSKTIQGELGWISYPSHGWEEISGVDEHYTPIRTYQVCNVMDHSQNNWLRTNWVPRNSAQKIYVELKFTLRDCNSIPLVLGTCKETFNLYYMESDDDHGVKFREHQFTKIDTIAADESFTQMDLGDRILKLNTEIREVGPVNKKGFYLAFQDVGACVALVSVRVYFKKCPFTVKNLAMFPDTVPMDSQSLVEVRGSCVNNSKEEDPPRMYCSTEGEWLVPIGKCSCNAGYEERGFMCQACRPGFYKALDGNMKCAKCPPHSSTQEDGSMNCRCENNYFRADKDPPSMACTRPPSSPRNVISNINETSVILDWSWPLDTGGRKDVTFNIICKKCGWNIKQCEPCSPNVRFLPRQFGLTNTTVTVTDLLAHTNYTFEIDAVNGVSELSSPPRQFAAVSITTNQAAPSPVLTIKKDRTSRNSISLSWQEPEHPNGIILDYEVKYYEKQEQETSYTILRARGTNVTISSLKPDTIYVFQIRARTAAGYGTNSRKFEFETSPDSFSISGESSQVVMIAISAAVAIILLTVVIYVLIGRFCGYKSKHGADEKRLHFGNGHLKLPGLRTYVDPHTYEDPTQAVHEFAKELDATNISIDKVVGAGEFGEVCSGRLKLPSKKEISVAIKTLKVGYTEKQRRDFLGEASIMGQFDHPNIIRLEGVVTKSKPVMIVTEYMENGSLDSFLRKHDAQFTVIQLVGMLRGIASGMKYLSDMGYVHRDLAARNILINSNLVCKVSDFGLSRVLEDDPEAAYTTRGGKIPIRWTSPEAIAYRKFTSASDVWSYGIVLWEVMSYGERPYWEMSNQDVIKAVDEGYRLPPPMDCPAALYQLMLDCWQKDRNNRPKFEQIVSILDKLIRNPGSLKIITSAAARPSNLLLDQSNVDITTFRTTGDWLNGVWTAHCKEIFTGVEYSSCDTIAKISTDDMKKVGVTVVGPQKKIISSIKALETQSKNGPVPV
# [3] = biological target: Vascular endothelial growth factor receptor 1 (Homo sapiens) (UniProt P17948); assay: Inhibition of N-terminal GST-fused human FLT1 cytoplasmic domain (781 to 1338 residues) expressed in baculovirus-infected Sf21 cells using CSKtide as substrate at 1 uM in presence of ATP by Mobility shift assay
# [4] = biological target: Protein-tyrosine kinase 2-beta (Homo sapiens) (UniProt Q14289); assay: Inhibition of N-terminal GST-tagged full length human PYK2 (1 to 967 residues) expressed in baculovirus-infected Sf21 cells using Blk/Lyntide as substrate at 1 uM in presence of ATP by Mobility shift assay
# [5] = biological target: Proto-oncogene tyrosine-protein kinase ROS (Homo sapiens) (UniProt P08922); assay: Inhibition of N-terminal GST-tagged human ROS cytoplasmic domain (1883 to 2347 residues) expressed in baculovirus-infected Sf21 cells using IRS1 as substrate at 1 uM in presence of ATP by Mobility shift assay
# [6] = biological target: Tyrosine-protein kinase TXK (Homo sapiens) (UniProt P42681); assay: Inhibition of N-terminal GST-tagged human TXK catalytic domain (260 to 527 residues) expressed in baculovirus-infected Sf21 cells using Srctide as substrate at 1 uM in presence of ATP by Mobility shift assay
# [7] = biological target: Tyrosine-protein kinase receptor TYRO3 (Homo sapiens) (UniProt Q06418); assay: Inhibition of N-terminal GST-tagged human TYRO3 cytoplasmic domain (453 to 890 residues) expressed in baculovirus-infected Sf21 cells using CSKtide as substrate at 1 uM in presence of ATP by Mobility shift assay
# [8] = biological target: Aurora kinase B (Homo sapiens) (UniProt Q96GD4); assay: Inhibition of human AurB at 1 uM by Mobility shift assay
# Sequence of Aurora kinase B (Homo sapiens) (Q96GD4 whole entry, the tested form may be a part): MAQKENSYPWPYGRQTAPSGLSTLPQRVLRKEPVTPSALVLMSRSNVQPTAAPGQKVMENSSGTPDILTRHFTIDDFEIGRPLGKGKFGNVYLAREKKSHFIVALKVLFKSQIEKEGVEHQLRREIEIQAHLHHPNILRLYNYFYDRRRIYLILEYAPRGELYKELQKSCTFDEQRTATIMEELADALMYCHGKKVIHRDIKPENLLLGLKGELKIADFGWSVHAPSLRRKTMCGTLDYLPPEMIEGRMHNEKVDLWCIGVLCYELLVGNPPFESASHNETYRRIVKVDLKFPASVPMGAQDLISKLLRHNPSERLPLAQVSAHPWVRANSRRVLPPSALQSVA
# [9] = biological target: Serine/threonine-protein kinase BRSK1 (Homo sapiens) (UniProt Q8TDC3); assay: Inhibition of N-terminal GST-tagged full length human BRSK1 (1 to 778 residues) expressed in baculovirus-infected Sf21 cells using CHKtide as substrate at 1 uM in presence of ATP by Mobility shift assay
# [10] = biological target: Calcium/calmodulin-dependent protein kinase type 1 (Homo sapiens) (UniProt Q14012); assay: Inhibition of N-terminal GST-tagged full length human CAMK1a (1 to 370 residues) expressed in baculovirus-infected Sf21 cells using GS peptide as substrate at 1 uM in presence of ATP by Mobility shift assay
# [11] = biological target: Calcium/calmodulin-dependent protein kinase type IV (Homo sapiens) (UniProt Q16566); assay: Inhibition of N-terminal GST-tagged full length human CAMK4 (1 to 473 residues) expressed in baculovirus-infected Sf21 cells using GS peptide as substrate at 1 uM in presence of ATP by Mobility shift assay
# [12] = biological target: Cyclin-dependent kinase 2/cyclin E1 (Homo sapiens) (UniProt P24864+P24941); assay: Inhibition of N-terminal GST-tagged full length human CDK2 (1 to 298 residues)/N-terminal GST-tagged human CyclinE1 (1 to 410 residues) expressed in baculovirus-infected Sf21 cells using Modified Histone H1 as substrate at 1 uM in presence of ATP by Mobility shift assay
# [13] = biological target: Mitogen-activated protein kinase kinase kinase kinase 4 (Homo sapiens) (UniProt O95819); assay: Inhibition of N-terminal GST-fused human HGK catalytic domain (1 to 328 residues) expressed in baculovirus expression system using Moesin-derived peptide as substrate at 1 uM in presence of ATP by Mobility shift assay
# Sequence of Mitogen-activated protein kinase kinase kinase kinase 4 (Homo sapiens) (O95819 2-1239 limits assumed): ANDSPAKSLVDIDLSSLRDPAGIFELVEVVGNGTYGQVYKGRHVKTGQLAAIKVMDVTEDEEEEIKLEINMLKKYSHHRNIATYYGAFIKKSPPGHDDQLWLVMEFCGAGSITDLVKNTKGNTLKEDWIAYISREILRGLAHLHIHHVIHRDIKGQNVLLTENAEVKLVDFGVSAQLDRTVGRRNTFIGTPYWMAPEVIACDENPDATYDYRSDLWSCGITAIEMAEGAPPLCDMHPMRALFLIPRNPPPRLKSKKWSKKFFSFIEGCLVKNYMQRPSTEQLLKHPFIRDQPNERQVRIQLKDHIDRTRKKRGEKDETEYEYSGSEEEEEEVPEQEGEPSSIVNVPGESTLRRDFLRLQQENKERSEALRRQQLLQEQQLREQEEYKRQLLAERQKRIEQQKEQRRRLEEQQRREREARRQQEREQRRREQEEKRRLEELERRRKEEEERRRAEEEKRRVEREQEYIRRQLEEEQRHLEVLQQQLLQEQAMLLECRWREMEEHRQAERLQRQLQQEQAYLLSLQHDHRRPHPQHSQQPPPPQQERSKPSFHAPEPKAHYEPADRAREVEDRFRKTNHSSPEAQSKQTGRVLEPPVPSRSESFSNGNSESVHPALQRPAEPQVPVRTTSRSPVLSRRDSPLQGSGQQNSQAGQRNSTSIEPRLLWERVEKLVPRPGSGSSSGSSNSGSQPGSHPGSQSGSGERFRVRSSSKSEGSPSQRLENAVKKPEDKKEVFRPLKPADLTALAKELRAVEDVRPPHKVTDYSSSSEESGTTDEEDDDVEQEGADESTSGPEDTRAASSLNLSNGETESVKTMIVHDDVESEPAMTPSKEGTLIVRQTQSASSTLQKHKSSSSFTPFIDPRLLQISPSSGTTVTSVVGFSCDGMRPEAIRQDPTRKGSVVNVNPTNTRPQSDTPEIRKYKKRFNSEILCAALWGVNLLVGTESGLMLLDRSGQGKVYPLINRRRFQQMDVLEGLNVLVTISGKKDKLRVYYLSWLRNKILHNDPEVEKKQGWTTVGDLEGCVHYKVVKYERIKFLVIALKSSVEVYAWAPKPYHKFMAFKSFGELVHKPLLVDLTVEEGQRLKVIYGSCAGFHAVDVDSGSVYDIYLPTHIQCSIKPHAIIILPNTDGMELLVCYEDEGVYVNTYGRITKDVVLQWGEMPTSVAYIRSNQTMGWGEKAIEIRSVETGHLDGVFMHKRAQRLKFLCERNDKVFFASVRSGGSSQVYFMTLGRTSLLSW
# [14] = biological target: Homeodomain-interacting protein kinase 2 (Homo sapiens) (UniProt Q9H2X6); assay: Inhibition of N-terminal GST-fused full length human HIPK2 (1 to 1198 residues) expressed in baculovirus expression system using DYRKtide-F as substrate at 1 uM in presence of ATP by Mobility shift assay
# [15] = biological target: Mitogen-activated protein kinase 8 (Homo sapiens) (UniProt P45983); assay: Inhibition of N-terminal GST-fused human JNK1 catalytic domain (2 to 364 residues) expressed in Escherichia coli expression system using Modified ERKtide as substrate at 1 uM in presence of ATP by Mobility shift assay
# [16] = biological target: Mitogen-activated protein kinase kinase kinase kinase 2 (Homo sapiens) (UniProt Q12851); assay: Inhibition of N-terminal GST-fused full length human MAP4K2 (1 to 820 residues) expressed in baculovirus expression system using S6K2 peptide as substrate at 1 uM in presence of ATP by Mobility shift assay
# Sequence of Mitogen-activated protein kinase kinase kinase kinase 2 (Homo sapiens) (Q12851 whole entry, the tested form may be a part): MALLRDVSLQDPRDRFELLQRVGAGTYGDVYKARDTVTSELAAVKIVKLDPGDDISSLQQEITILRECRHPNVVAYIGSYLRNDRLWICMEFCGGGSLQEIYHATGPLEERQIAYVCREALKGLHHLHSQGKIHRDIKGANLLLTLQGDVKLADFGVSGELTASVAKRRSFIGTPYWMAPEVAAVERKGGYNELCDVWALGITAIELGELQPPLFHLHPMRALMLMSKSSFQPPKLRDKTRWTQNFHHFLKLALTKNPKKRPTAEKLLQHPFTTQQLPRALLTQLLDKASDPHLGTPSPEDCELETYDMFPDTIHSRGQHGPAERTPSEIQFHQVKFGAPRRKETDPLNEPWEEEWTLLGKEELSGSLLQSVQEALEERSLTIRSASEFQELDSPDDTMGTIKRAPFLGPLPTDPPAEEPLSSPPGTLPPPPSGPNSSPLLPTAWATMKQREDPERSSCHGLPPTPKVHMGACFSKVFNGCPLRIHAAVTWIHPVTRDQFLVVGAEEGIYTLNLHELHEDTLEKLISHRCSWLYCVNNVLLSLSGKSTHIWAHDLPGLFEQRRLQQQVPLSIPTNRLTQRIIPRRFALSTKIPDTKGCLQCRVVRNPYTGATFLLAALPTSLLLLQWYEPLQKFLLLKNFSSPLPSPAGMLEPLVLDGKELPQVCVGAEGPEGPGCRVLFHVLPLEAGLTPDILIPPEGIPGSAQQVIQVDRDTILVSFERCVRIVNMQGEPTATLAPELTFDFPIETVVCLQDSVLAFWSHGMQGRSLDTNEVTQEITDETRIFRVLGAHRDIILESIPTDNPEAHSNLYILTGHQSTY
# [17] = biological target: Serine/threonine-protein kinase 26 (Homo sapiens) (UniProt Q9P289); assay: Inhibition of N-terminal GST-fused full length human MST4 (1 to 416 residues) expressed in baculovirus expression system using Moesin-derived peptide as substrate at 1 uM in presence of ATP by Mobility shift assay
# [18] = biological target: Serine/threonine-protein kinase 38 (Homo sapiens) (UniProt Q15208); assay: Inhibition of N-terminal GST-fused full length human NDR1 (1 to 465 residues) expressed in baculovirus expression system using SGKtide as substrate at 1 uM in presence of ATP by Mobility shift assay
# [19] = biological target: Serine/threonine-protein kinase pim-2 (Homo sapiens) (UniProt Q9P1W9); assay: Inhibition of N-terminal GST-tagged full length human PIM2 (1 to 311 residues) expressed in baculovirus expression system using S6K2 peptide as substrate at 1 uM in presence of ATP by Mobility shift assay
# Sequence of Serine/threonine-protein kinase pim-2 (Homo sapiens) (Q9P1W9 whole entry, looked up, the tested form may be a part): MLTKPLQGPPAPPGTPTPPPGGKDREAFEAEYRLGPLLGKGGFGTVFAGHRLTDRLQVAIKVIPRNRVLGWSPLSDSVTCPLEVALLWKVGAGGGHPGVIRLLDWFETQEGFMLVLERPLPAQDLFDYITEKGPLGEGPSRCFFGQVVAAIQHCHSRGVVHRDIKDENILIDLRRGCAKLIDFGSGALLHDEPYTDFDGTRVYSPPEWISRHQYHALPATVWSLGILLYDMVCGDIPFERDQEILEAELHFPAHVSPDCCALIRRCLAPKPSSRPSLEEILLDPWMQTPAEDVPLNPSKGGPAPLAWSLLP
# [20] = biological target: Protein kinase C alpha type (Homo sapiens) (UniProt P17252); assay: Inhibition of N-terminal GST-fused human full length PKC-alpha (1 to 672 residues ) expressed in baculovirus expression system using PKC peptide as substrate at 1 uM in presence of ATP by Mobility shift assay
# [21] = biological target: Serine/threonine-protein kinase SIK1 (Homo sapiens) (UniProt P57059); assay: Inhibition of N-terminal GST-fused full length human SIK (1 to 783 residues) expressed in baculovirus expression system using AMARA peptide as substrate at 1 uM in presence of ATP by Mobility shift assay
# [22] = biological target: SRSF protein kinase 1 (Homo sapiens) (UniProt Q96SB4); assay: Inhibition of N-terminal GST-fused full length human SRPK1 (1 to 655 residues) expressed in Escherichia coli expression system using SRPKtide as substrate at 1 uM in presence of ATP by IMAP assay
# [23] = biological target: Testis-specific serine/threonine-protein kinase 1 (Homo sapiens) (UniProt Q9BXA7); assay: Inhibition of N-terminal GST-fused full length human TSSK1 (1 to 367 residues) expressed in baculovirus expression system using GS peptide as substrate at 1 uM in presence of ATP by Mobility shift assay
# Sequence of Testis-specific serine/threonine-protein kinase 1 (Homo sapiens) (Q9BXA7 whole entry, the tested form may be a part): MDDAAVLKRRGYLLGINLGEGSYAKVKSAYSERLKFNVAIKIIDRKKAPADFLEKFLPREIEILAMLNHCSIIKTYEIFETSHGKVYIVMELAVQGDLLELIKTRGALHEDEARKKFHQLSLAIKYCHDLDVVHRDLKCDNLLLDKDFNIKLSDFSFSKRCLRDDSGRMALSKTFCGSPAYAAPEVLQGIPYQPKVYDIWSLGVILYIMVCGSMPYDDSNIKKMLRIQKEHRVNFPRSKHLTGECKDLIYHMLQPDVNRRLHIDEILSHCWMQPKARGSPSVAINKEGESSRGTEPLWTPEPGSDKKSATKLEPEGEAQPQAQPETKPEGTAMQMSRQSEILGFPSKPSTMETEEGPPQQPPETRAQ
SMILES,inhibition [1],inhibition [2],inhibition [3],inhibition [4],inhibition [5],inhibition [6],inhibition [7],inhibition [8],inhibition [9],inhibition [10],inhibition [11],inhibition [12],inhibition [13],inhibition [14],inhibition [15],inhibition [16],inhibition [17],inhibition [18],inhibition [19],inhibition [20],also measured
Cc1cc(C)c(CNC(=O)c2cc(Br)c3c(c2C)O[C@@](C)([C@H]2CC[C@H](N(C)C)CC2)O3)c(=O)[nH]1,-2.2%,-8.6%,-4.4%,3%,-2.1%,1.3%,0.9%,-3.7%,-1.9%,0.2%,-2.9%,19.9%,-0.2%,-1.4%,-3.4%,4.5%,-0.1%,-2.6%,-3.9%,4.7%,inhibition [21]: -3.1%; inhibition [22]: -4.7%; inhibition [23]: -2.6%
Cc1cc(C)c(CNC(=O)c2cc(Cl)c3c(c2C)O[C@@](C)([C@H]2CC[C@H](N(C)C)CC2)O3)c(=O)[nH]1 [VALEMETOSTAT],-3.1%,-4.8%,-5.2%,2.8%,-0.9%,-7%,-2.6%,-1%,-3.6%,-2.8%,-7.2%,-2.1%,0.4%,3.1%,-4.9%,2.3%,0.8%,-0.5%,-1.4%,24%,inhibition [21]: 6.2%; inhibition [22]: -6.9%; inhibition [23]: -4.9%
